Assay results taken from US20260365670A1, “EGFR INHIBITORS AND USES THEREOF” (DIZAL (JIANGSU) PHARMACEUTICAL CO., LTD., priority 2022, published 2026).
Where two headings read alike, the source gives them in different places.

What was measured:
[1] = molecular target: T1, EGFR[T790M/C797S/L858R] (Homo sapiens, UniProt P00533, C797S/L858R/T790M); assay: Inhibition of EGFR[T790M/C797S/L858R] biochemical enzymatic activity (HTRF); conditions: EGFR T790M-C797S-L858R, 1 mM ATP, 1 h, room temperature, read-out: IC50 (nM) @T790M- C797S - L858R
T1 construct: purchased Carna Bio
Outline: (§1)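 HTRF kinase assay: each EGFR enzyme phosphorylated 1 μM biotinylated TK substrate with 1 mM ATP in buffer containing 5 mM MgCl2, 1 mM MnCl2, 0.01% CHAPS, 1 mM DTT, 0.5% DMSO. After 1 h at room temperature, EDTA detection mix stopped the reaction. IC50 came from a four-parameter logistic fit of the 665/615 nm ratio.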

[2] = tested on: Ba/F3 cells expressing EGFR mutations; assay: Cell proliferation assay, Ba/F3 cells expressing EGFR mutations (CellTiter-Glo, 72 hours); assay type: cell-based; conditions: CellTiter-Glo
Outline: (§2)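 Seed Ba/F3 at 5000 cells/well and PC-9 at 500 cells/well (10% FBS RPMI1640); incubate overnight; add compound dilution series; read a G0 plate; incubate; read G3; GI50 from best-fit curve.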

[3] = molecular target: T2, EGFR wild type (Homo sapiens, UniProt P00533); assay: Inhibition of EGFR wild type biochemical enzymatic activity (HTRF); conditions: EGFR WT, 1 mM ATP, 1 h, room temperature, read-out: IC50 (nM) @WT
T2 construct: purchased Carna Bio
T2 sequence (P00533 25-1210): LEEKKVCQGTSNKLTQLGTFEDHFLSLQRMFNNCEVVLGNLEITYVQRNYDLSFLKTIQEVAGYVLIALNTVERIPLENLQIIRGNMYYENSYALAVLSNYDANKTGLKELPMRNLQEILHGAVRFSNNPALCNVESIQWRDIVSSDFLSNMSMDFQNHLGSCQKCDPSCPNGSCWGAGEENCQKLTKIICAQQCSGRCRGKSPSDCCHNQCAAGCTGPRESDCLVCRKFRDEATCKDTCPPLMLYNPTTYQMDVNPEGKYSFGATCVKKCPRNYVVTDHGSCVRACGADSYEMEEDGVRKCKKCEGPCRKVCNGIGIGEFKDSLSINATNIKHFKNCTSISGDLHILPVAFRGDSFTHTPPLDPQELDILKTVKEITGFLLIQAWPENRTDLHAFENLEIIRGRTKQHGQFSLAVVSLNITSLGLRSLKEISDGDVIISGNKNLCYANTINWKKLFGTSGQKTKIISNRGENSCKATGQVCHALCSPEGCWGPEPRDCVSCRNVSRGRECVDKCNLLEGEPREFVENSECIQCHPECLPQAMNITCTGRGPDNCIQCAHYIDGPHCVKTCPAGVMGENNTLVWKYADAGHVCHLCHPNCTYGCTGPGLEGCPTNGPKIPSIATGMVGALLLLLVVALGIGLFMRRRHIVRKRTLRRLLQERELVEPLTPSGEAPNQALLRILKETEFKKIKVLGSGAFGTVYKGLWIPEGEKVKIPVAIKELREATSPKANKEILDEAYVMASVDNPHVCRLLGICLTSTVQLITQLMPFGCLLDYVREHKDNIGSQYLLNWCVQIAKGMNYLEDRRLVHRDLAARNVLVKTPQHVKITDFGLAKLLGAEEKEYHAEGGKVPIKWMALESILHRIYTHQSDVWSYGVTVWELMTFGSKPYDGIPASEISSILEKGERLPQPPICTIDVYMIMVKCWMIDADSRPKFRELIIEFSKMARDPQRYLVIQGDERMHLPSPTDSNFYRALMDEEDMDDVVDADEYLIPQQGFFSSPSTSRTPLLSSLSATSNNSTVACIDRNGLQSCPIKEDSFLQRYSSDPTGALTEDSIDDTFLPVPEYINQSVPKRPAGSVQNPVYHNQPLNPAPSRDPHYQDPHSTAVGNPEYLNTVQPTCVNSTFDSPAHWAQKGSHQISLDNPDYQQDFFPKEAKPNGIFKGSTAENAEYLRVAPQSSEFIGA
Outline: as §1

[4] = molecular target: T3, EGFR L858R (Homo sapiens, UniProt P00533, L858R); assay: Inhibition of EGFR L858R biochemical enzymatic activity (HTRF); conditions: 1 mM ATP, 1 h, room temperature, read-out: IC50 (nM) @L858R
T3 construct: purchased Carna Bio
Outline: as §1

[5] = molecular target: T4, EGFR Exon19Del/T790M (Homo sapiens, UniProt P00533, DEL746-750/T790M); assay: Inhibition of EGFR Exon19Del/T790M biochemical enzymatic activity (HTRF); conditions: EGFR Del19-T790M, 1 mM ATP, 1 h, room temperature, read-out: IC50 (nM) @Del19-T790M
T4 construct: purchased Carna Bio
T4 sequence (P00533 with tags, fused parts or gaps DEL746-750/T790M limits assumed): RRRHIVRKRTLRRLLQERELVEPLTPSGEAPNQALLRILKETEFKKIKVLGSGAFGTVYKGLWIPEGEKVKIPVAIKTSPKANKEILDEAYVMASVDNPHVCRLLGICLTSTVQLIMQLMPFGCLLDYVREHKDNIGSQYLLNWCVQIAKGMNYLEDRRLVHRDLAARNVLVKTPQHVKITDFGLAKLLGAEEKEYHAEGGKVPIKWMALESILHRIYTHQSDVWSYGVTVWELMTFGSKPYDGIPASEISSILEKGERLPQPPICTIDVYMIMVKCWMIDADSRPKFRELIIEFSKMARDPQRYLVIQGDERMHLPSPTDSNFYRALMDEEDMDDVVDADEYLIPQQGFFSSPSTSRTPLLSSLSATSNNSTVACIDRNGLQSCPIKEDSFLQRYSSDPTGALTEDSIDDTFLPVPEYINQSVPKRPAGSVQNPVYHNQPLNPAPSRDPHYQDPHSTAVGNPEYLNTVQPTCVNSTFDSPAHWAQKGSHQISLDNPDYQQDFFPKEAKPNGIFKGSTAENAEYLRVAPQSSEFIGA
Outline: as §1

[6] = tested on: PC-9; assay: Cell proliferation assay, PC-9 cells (CellTiter-Glo, 72 hours); assay type: cell-based; conditions: PC9 cells, CellTiter-Glo, read-out: PC9 GI50
Outline: as §2

[7] = tested on: A-431; assay: Cell proliferation GI50, A-431 cells (Table 6); assay type: cell-based
[8] = molecular target: T5, EGFR L858R/T790M (Homo sapiens, UniProt P00533, L858R/T790M); assay: Inhibition of EGFR L858R/T790M biochemical enzymatic activity (HTRF); conditions: EGFR L858R-T790M, 1 mM ATP, 1 h, room temperature, read-out: IC50 (nM) @L858R-T790M
T5 construct: purchased Carna Bio
T5 sequence (P00533 25-1210 T790M/L858R): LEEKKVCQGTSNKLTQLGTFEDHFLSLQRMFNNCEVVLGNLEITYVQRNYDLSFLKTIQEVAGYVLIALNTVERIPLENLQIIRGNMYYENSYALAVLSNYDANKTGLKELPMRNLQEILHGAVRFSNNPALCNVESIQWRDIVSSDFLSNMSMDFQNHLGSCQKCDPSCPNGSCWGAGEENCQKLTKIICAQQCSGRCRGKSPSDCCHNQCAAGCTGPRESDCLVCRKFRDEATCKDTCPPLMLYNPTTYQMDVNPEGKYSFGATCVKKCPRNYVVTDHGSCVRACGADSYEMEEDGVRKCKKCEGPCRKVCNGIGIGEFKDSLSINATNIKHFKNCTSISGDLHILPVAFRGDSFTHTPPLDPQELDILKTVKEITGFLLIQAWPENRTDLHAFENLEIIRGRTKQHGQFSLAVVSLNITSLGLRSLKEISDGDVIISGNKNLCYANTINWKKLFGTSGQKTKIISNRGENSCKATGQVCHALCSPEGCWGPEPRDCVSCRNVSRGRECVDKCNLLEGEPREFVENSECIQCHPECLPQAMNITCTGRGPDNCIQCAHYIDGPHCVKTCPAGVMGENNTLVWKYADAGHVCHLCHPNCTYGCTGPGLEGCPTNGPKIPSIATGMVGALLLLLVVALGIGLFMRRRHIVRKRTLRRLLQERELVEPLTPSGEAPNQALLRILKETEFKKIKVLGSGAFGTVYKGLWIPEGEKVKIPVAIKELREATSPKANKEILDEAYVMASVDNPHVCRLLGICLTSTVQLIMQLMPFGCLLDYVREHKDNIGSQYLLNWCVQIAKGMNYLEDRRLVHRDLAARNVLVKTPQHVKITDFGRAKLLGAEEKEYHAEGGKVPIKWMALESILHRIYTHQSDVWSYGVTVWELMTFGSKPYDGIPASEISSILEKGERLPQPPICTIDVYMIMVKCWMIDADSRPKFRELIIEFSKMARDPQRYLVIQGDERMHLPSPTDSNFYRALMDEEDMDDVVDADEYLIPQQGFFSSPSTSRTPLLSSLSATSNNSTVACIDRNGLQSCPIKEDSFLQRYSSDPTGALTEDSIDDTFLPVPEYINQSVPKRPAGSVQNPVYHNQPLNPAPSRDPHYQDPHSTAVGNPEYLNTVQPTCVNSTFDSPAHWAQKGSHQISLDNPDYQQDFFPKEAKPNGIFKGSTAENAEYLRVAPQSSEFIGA
Outline: as §1

[9] = molecular target: T6, EGFR (C797S L858R) (Homo sapiens, UniProt P00533, C797S/L858R); assay: Inhibition of EGFR (C797S L858R) biochemical enzymatic activity (HTRF); conditions: EGFR L858-C797S, 1 mM ATP, 1 h, room temperature, read-out: IC50 (nM) @L858-C797S
T6 construct: purchased signalchem
T6 sequence (P00533 25-1210 C797S/L858R): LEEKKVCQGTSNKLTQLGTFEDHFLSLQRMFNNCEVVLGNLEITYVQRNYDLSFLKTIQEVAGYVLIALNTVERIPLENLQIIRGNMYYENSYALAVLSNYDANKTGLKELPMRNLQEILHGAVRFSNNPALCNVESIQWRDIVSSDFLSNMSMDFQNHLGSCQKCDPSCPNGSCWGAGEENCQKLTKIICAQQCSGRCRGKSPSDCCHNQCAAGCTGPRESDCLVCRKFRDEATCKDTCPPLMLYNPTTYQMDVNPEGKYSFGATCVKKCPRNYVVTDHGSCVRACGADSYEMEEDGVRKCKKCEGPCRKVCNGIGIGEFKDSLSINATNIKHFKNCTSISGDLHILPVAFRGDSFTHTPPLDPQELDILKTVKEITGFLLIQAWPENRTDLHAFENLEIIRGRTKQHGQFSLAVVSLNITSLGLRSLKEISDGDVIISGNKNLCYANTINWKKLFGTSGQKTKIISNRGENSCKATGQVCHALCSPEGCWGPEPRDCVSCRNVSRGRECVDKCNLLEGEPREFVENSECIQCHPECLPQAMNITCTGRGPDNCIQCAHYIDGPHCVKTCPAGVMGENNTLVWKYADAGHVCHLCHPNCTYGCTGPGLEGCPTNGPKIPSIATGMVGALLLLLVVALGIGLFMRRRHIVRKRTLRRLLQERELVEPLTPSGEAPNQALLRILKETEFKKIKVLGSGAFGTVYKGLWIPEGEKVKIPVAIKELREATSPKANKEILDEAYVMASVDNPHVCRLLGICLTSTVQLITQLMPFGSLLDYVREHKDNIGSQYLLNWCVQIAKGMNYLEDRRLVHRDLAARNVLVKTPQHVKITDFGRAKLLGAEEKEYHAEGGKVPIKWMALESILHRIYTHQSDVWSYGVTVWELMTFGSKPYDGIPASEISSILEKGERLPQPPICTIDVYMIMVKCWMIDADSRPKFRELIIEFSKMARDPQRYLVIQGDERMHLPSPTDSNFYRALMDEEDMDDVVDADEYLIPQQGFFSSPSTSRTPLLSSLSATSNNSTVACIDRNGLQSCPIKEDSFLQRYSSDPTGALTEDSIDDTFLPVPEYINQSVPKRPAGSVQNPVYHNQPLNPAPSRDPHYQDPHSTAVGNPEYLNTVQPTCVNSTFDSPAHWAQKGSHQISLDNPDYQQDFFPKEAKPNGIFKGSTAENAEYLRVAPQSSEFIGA
Outline: as §1

[10] = molecular target: T7, EGFR[T790M/C797S/d746-750] (Homo sapiens, UniProt P00533, C797S/DEL746-750/T790M); assay: Inhibition of EGFR[T790M/C797S/d746-750] biochemical enzymatic activity (HTRF); conditions: EGFR T790M-C797S-Del19, 1 mM ATP, 1 h, room temperature, read-out: IC50 (nM) @T790M - C797S - Del19
T7 construct: purchased Carna Bio
T7 sequence (P00533 with tags, fused parts or gaps DEL746-750/T790M/C797S limits assumed): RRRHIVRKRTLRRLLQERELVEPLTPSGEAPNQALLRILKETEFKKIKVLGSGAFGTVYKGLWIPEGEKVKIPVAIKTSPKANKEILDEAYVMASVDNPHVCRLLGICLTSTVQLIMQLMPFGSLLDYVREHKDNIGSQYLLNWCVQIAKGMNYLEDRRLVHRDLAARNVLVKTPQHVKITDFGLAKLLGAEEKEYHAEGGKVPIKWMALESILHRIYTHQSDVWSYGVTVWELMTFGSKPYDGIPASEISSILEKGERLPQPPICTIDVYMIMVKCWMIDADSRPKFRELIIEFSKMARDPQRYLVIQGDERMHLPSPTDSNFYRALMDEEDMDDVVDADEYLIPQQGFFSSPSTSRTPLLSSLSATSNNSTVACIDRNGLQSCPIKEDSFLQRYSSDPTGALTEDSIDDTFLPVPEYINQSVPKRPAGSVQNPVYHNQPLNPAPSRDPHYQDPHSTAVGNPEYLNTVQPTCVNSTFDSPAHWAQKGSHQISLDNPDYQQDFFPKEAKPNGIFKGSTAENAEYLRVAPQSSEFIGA
Outline: as §1

[11] = molecular target: T8, EGFR Exon19Del (Homo sapiens, UniProt P00533, DEL746-750); assay: Inhibition of EGFR Exon19Del biochemical enzymatic activity (HTRF); conditions: EGFR Del19, 1 mM ATP, 1 h, room temperature, read-out: IC50 @Del19
T8 construct: purchased Carna Bio
Outline: as §1

[12] = molecular target: T9, EGFR (d746-750 C797S) (Homo sapiens, UniProt P00533, C797S/DEL746-750); assay: Inhibition of EGFR (d746-750 C797S) biochemical enzymatic activity (HTRF); conditions: EGFR Del19-C797S, 1 mM ATP, 1 h, room temperature, read-out: IC50 (nM) @Del19-C797S
T9 construct: purchased signalchem
Outline: as §1

[13] = Mus musculus, BaF3, 72 h, BaF3 cells, EGFR DEL19-C797S, read-out: DEL19-C797S/BaF3 GI50
[14] = Mus musculus, BaF3, 72 h, BaF3 cells, EGFR DEL19-T790-C797S, read-out: DEL19-T790-C797S/BaF3 GI50
[15] = Mus musculus, BaF3, 72 h, BaF3 cells, EGFR L858R, read-out: L858R/BaF3 GI50
[16] = Mus musculus, BaF3, 72 h, BaF3 cells, EGFR L858R-C797S, read-out: L858R-C797S/BaF3 GI50
[17] = Mus musculus, BaF3, 72 h, BaF3 cells, EGFR L858R-T790-C797S, read-out: L858R-T790-C797S/BaF3 GI50
[18] = Mus musculus, BaF3, 72 h, BaF3 cells, EGFR L858R-T790M, read-out: L858R-T790M/BaF3 GI50
[19] = Mus musculus, BaF3, 72 h, EGFR DEL19-T790M, read-out: DEL19-T790M GI50
[20] = Homo sapiens, A-431, A-431 cells
[21] = BaF3 cells, EGFR DEL19-C797S, read-out: DEL19-C797S/BaF3 GI50
[22] = BaF3 cells, EGFR DEL19-T790-C797S, read-out: DEL19-T790-C797S/BaF3 GI50
[23] = BaF3 cells, EGFR L858R, read-out: L858R/BaF3 GI50
[24] = BaF3 cells, EGFR L858R-C797S, read-out: L858R-C797S/BaF3 GI50
[25] = BaF3 cells, EGFR L858R-T790-C797S, read-out: L858R-T790-C797S/BaF3 GI50
[26] = BaF3 cells, EGFR L858R-T790M, read-out: L858R-T790M/BaF3 GI50
[27] = EGFR DEL19-T790M, read-out: DEL19-T790M GI50

IC50 [1] [nM] | GI50 [2, 13] [nM] | GI50 [2, 14] [nM] | IC50 [3] [nM] | IC50 [4] [nM] | IC50 [5] [nM] | GI50 [7, 20] [nM] | IC50 [8] [nM] | IC50 [9] [nM] | IC50 [10] [nM] | IC50 [11] [nM] | IC50 [12] [nM] | GI50 [2, 21] [nM] | GI50 [2, 22] [nM] | GI50 [2, 23] [nM] | GI50 [2, 24] [nM] | GI50 [2, 25] [nM] | GI50 [2, 26] [nM] | GI50 [2, 27] [nM] | GI50 [6] [nM] | also measured | SMILES
3.9 | 1.3 | 6.3 | 54 | 6.3 | 3.5 | 480 | 6.6 | 4.7 | 3.4 | 1.3 | 1.4 | – | – | – | – | – | – | – | – | GI50 [2, 15]: 8.1 nM; GI50 [2, 16]: 8.4 nM; GI50 [2, 17]: 9.6 nM; GI50 [2, 18]: 13.1 nM; GI50 [2, 19]: 9.6 nM; GI50 ([6]; Homo sapiens, PC-9, 72 h): 15.4 nM | C[C@@H]1CCCOc2c(cnn2C)-c2cc(cn(C)c2=O)C(=O)Nc2nc3ccc(N4CCC5(CC4)CCN5C)cc3n2C1 [Example A52]
> 5000 | 55 | 405 | > 5000 | > 5000 | 198 | 3020 | > 5000 | > 5000 | 316 | 264 | 536 | – | – | – | – | – | – | – | – | GI50 [2, 15]: 608 nM; GI50 [2, 16]: 515 nM; GI50 [2, 17]: 607 nM; GI50 [2, 18]: 264 nM; GI50 [2, 19]: 364 nM; GI50 ([6]; Homo sapiens, PC-9, 72 h): 211 nM | Cn1ncc2c1OCCN1CC3(CCCC1C3)n1c(nc3ccc(N4CCOCC4)cc31)NC(=O)c1cc-2c(=O)n(C)c1 (stereo not drawn) [Example A9, 15,21-Dimethyl-5-(morpholin-4-yl)-23-oxa-2,9,11,15,20,21,26-heptaazaheptacyclo[24.4.1.1^{1,27}.1^{13,17}.0^{2,10}.0^{3,8}.0^{18,22}]tritriaconta-3,5,7,9,13,17(33),18(22),19-octaene-12,16-dione]
1.4 | – | – | 4.1 | 1.8 | 2.2 | – | 2.2 | 2.2 | 2 | 1.2 | 1 | 0.79 | 1.4 | 1.1 | 2.2 | 3 | 1.1 | 1.9 | 7.6 | GI50 ([7]; A-431 cells): 732 nM | CN1CCN(C2CCN(c3ccc4nc5n(c4c3)C34CCC(CN(CCOc6c(cnn6C)-c6cc(cn(C)c6=O)C(=O)N5)C3)C4)CC2)CC1 (single isomer, unassigned) [Example A106B]
6.1 | – | – | 110 | 11 | 9.7 | – | 12 | 8 | 6.7 | 4 | 2.9 | 0.75 | 2.2 | 2.6 | 3.9 | 4.6 | 11 | 3.1 | 25 | GI50 ([7]; A-431 cells): 1690 nM | CN1CCC2(CN(c3ccc4nc5n(c4c3)C34CCC(CN(CCOc6c(cnn6C)-c6cc(cn(C)c6=O)C(=O)N5)C3)C4)C2)C(F)(F)C1 (single isomer, unassigned) [Example A91B]
1.1 | – | – | 7.7 | 1.9 | 1.7 | – | 1.3 | 1.5 | 1.4 | 1 | 0.77 | 0.67 | 1 | 1 | 1.1 | 1.2 | 3.9 | 1.3 | 4.6 | GI50 ([7]; A-431 cells): 320 nM | CC(C)N1CCN(c2ccc3nc4n(c3c2)C23CCC(CN(CCOc5c(cnn5C)-c5cc(cn(C)c5=O)C(=O)N4)C2)C3)CC1 (single isomer, unassigned) [Example A108B]
3.1 | – | – | 84 | 11 | 2.2 | 969 | 3.1 | 5.5 | 2.2 | 1.2 | 1.6 | 0.5 | 1.1 | 0.78 | 1.6 | 1.2 | 7.7 | 1.3 | 12 | – | CN(C)CCN(C)c1ccc2nc3n(c2c1)C12CCC(CN(CCOc4c(cnn4C)-c4cc(cn(C)c4=O)C(=O)N3)C1)C2 (single isomer, unassigned) [Example A85B]
> 5000 | – | – | > 5000 | > 5000 | > 5000 | 4270 | > 5000 | > 5000 | > 5000 | 1710 | 749 | 128 | 393 | 540 | 249 | 721 | 977 | 321 | 2100 | – | COCCN(C)c1ccc2nc3n(c2c1)C12CCC(CN(CCOc4c(cnn4C)-c4cc(cn(C)c4=O)C(=O)N3)C1)C2 (single isomer, unassigned) [Example A90A]
7.2 | 2.1 | 22 | 446 | 37 | 7.3 | 1110 | 18 | 15 | 7.1 | 4.6 | 3.7 | – | – | – | – | – | – | – | – | GI50 [2, 15]: 19 nM; GI50 [2, 16]: 26 nM; GI50 [2, 17]: 7.2 nM; GI50 [2, 18]: 6.7 nM; GI50 [2, 19]: 24 nM; GI50 ([6]; Homo sapiens, PC-9, 72 h): 24 nM | CCn1ncc2c1OCCC[C@@H](C)Cn1c(nc3ccc(N4CCN(C)CC4)cc31)NC(=O)c1cc-2c(=O)n(C)c1 [Example A21, (11R)-5-ethyl-11,26-dimethyl-16-(4-methylpiperazin-1-yl)-7-oxa-4,5,13,20,22,26-hexaazapentacyclo[22.3.1.0^{2,6}.0^{13,21}.0^{14,19}]octacosa-1(28),2(6),3,14,16,18,20,24-octaene-23,27-dione]
